Test results published in US20140243286A1, “BROMODOMAIN LIGANDS CAPABLE OF DIMERIZING IN AN AQUEOUS SOLUTION, AND METHODS OF USING SAME” (Coferon, Inc., priority 2011, published 2014).
pIC50: −log10 of the molar value. Read-outs that look alike come from different tables or passages of the source.

What was measured:
bromodomain = assay: TR-FRET assay; assay type: binding; conditions: BRD-S monomers; based on monomer concentration; read-out: IC50 range (based on monomer concentration), Group (FRET assay)
Protocol: TR-FRET assays were performed as described in Chung et al, J. Med Chem., 2011 54(11): 3827-38 except that FRET was measured on a Spectramax M5 plate reader.

BRD4 = BRD4 (Homo sapiens, UniProt O60885); assay: Fluorescence anisotropy (FA) binding assay, BRD4
Protocol: (§1) Fluorescence Anisotropy (FA) Binding Assays.
(§2) FA assays were performed as described in Chung et al., J. Med Chem., 2011 54(11): 3827-38 except that protein concentrations were 125 nM and plates were read on a Spectramax M5 plate reader.

BRD3 = BRD3 (Homo sapiens, UniProt Q15059); assay: Fluorescence anisotropy (FA) binding assay, BRD3
Sequence of BRD3 (Q15059 whole entry): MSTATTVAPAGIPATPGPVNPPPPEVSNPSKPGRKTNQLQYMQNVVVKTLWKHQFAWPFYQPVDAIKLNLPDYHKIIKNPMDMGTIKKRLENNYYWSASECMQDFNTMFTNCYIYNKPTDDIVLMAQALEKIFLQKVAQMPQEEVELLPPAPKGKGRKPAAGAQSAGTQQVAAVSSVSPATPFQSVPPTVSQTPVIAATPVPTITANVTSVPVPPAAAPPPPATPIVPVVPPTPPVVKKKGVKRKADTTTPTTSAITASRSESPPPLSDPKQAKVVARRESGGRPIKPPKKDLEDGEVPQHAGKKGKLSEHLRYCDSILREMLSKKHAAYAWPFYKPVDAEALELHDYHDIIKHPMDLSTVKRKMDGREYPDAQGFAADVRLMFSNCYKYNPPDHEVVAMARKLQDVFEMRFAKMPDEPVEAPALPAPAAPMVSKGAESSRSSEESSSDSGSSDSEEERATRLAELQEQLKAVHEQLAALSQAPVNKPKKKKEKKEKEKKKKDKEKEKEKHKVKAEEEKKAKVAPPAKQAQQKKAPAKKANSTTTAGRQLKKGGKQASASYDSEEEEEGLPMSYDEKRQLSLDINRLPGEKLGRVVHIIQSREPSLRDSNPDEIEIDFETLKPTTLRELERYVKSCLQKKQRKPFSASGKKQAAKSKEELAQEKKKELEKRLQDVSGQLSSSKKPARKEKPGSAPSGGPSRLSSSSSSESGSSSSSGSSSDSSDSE
Protocol: as §1, §2

BRD2 = BRD2 (Homo sapiens, UniProt P25440); assay: Fluorescence anisotropy (FA) binding assay, BRD2
Sequence of BRD2 (P25440 whole entry): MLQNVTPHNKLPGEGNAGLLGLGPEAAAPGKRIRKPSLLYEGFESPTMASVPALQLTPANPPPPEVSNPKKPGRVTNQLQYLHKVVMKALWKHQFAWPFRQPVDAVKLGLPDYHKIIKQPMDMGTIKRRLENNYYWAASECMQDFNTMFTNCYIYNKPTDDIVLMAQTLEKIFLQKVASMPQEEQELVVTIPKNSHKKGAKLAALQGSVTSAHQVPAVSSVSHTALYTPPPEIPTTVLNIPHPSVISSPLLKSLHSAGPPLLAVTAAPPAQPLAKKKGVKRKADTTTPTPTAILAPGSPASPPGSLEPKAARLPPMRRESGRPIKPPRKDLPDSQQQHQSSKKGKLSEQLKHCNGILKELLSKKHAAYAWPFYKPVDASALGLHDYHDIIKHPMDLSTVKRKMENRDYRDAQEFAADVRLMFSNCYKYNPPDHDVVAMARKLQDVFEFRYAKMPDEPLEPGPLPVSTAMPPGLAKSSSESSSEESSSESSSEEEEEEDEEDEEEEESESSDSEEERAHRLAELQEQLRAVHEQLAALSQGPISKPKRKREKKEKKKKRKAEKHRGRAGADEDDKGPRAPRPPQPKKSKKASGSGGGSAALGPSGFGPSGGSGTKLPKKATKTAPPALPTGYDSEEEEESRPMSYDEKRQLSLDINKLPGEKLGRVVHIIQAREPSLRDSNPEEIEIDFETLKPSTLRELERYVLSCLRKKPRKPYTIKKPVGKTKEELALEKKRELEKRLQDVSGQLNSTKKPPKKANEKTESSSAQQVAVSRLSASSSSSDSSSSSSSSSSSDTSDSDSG
Protocol: as §1, §2

[1] = BRD4, protein 125 nM, read-out: IC50 range (FA assay) BRD4, BRD-E monomers
[2] = BRD3, protein 125 nM, read-out: IC50 range (FA assay) BRD3, BRD-E monomers
[3] = BRD2, protein 125 nM, read-out: IC50 range (FA assay) BRD2, BRD-E monomers
[4] = BRD4, protein 125 nM, read-out: IC50 range (FA assay) BRD4, BRD-N monomers
[5] = BRD3, protein 125 nM, read-out: IC50 range (FA assay) BRD3, BRD-N monomers
[6] = BRD2, protein 125 nM, read-out: IC50 range (FA assay) BRD2, BRD-N monomers

| SMILES | pIC50 (BRD4; [4]) | pIC50 (BRD3; [5]) | pIC50 (BRD2; [6]) | also measured |
| --- | --- | --- | --- | --- |
| CCNC(=O)C[C@@H]1N=C(c2ccc(Cl)cc2)c2cc(O)ccc2-n2c(C)nnc21 |  |  |  | melting point: 180 to 182 °C |
| COc1ccc2c(c1)C(c1ccc(Cl)cc1)=N[C@@H](CC(=O)NCCOc1cccc([Si](C)(C)O)c1)c1nnc(C)n1-2 [BRD-S-10, (S)-2-(6-(4-chlorophenyl)-8-methoxy-1-methyl-4H-benzo[f][1,2,4]triazolo[4,3-a][1,4]diazepin-4-yl)-N-(2-(3-(hydroxydimethylsilyl)phenoxy)ethyl)acetamide] |  |  |  | pIC50 (bromodomain): 6.52 to 7.00 |
| COc1ccc2c(c1)C(c1ccc(Cl)cc1)=N[C@@H](CC(=O)NCCCCCNC(=O)c1cccc(B(O)O)c1)c1nnc(C)n1-2 [BRD-E-08, (3-((5-(2-((4S)-6-(4-chlorophenyl)-8-methoxy-1-methyl-4H-benzo[f][1,2,4]triazolo[4,3-a][1,4]diazepin-4-yl)acetamido)pentyl)carbamoyl)phenyl)-boronic acid] |  |  |  | pIC50 (BRD4; [1]): 6.00 to 7.30; pIC50 (BRD3; [2]): 6.00 to 7.30; pIC50 (BRD2; [3]): 6.00 to 7.30 |
| COc1ccc2c(c1)C(c1ccc(Cl)cc1)=N[C@@H](CC(=O)NCCCCCNC(=O)c1cccc(O)c1O)c1nnc(C)n1-2 [BRD-N-08, N-(5-(2-((4S)-6-(4-chlorophenyl)-8-methoxy-1-methyl-4H-benzo[f][1,2,4]triazolo[4,3-a][1,4]diazepin-4-yl)acetamido)pentyl)-2,3-dihydroxybenzamide] | 6.00 to 7.30 | 6.00 to 7.30 | 6.00 to 7.30 |  |
| COc1ccc2c(c1)C(c1ccc(Cl)cc1)=N[C@@H](CC(=O)NCCCNC(=O)c1cccc(O)c1O)c1nnc(C)n1-2 [BRD-N-04, N-(3-(2-((4S)-6-(4-chlorophenyl)-8-methoxy-1-methyl-4H-benzo[f][1,2,4]triazolo[4,3-a][1,4]diazepin-4-yl)acetamido)propyl)-2,3-dihydroxybenzamide] |  |  |  | pIC50 (BRD4): 6.00 to 7.30; pIC50 (BRD3): 6.00 to 7.30; pIC50 (BRD2): 6.00 to 7.30 |
| CCNC(=O)C[C@@H]1N=C(c2ccc(Cl)cc2)c2cc(OCCCCNC(=O)c3cccc(O)c3O)ccc2-n2c(C)nnc21 [BRD-N-29, (S)—N-(4-((6-(4-chlorophenyl)-4-(2-(ethylamino)-2-oxoethyl)-1-methyl-4H-benzo[f][1,2,4]triazolo[4,3-a][1,4]diazepin-8-yl)oxy)butyl)-2,3-dihydroxybenzamide] | 4.52 to 6.00 | 4.52 to 6.00 | 6.00 to 7.30 |  |
| COc1ccc2c(c1)C(c1ccc(Cl)cc1)=N[C@@H](CC(=O)NCCNC(=O)c1cccc(O)c1O)c1nnc(C)n1-2 [BRD-N-02, N-(2-(2-((4S)-6-(4-chlorophenyl)-8-methoxy-1-methyl-4H-benzo[f][1,2,4]triazolo[4,3-a][1,4]diazepin-4-yl)acetamido)ethyl)-2,3-dihydroxybenzamide] | 6.00 to 7.30 | 6.00 to 7.30 | 6.00 to 7.30 |  |
| COc1ccc2c(c1)C(c1ccc(Cl)cc1)=N[C@@H](CC(=O)NCCNC(=O)Cc1cccc(B(O)O)c1)c1nnc(C)n1-2 [BRD-E-38, (3-(2-((2-(2-((4S)-6-(4-chlorophenyl)-8-methoxy-1-methyl-4H-benzo[f][1,2,4]triazolo[4,3-a][1,4]diazepin-4-yl)acetamido)ethyl)amino)-2-oxoethyl)phenyl)boronic acid] |  |  |  | pIC50 (BRD4; [1]): 6.00 to 7.30; pIC50 (BRD3; [2]): 6.00 to 7.30; pIC50 (BRD2; [3]): 6.00 to 7.30 |
| COc1ccc2c(c1)C(c1ccc(Cl)cc1)=N[C@@H](CC(=O)NCCc1ccc(O)c(O)c1)c1nnc(C)n1-2 [BRD-N-10, (S)-2-(6-(4-chlorophenyl)-8-methoxy-1-methyl-4H-benzo[f][1,2,4]triazolo[4,3-a][1,4]diazepin-4-yl)-N-(3,4-dihydroxyphenethyl)acetamide] | 6.00 to 7.30 | 6.00 to 7.30 | 6.00 to 7.30 |  |
